Measurements published in patent US7109220B2, “Amino substituted pyridinyl methanone compounds useful in treating kinase disorders” (Janssen Pharmaceutica N.V., priority 2003, dated 2006).

What was measured:
Format in all cases: biochemical
VEGF-R2 kinase = target: T1, VEGF-R2 kinase (Rattus norvegicus, UniProt O08775); experiment: VEGF-R2 Kinase Screening Assay; conditions: soluble rat VEGF-R2 kinase, 10 μM ATP; read-out: VEGF-R IC50
T1 construct: polyhistidine (N)
Experimental: (§1) A kinase reaction mixture was prepared containing 50 mM Tris-HCl pH=8, 10 mM MgCl2, 0.1 mM Na3PO4, 1 mM DTT, 10 μM ATP, 0.025 uM biotinylated peptide substrate and 0.8 μCuries per well^33P-γ-ATP [2000–3000 Ci/mmol]. 70 μL of the kinase reaction mixture was dispensed into the well of a streptavidin coated FlashPlate™ (Cat. #SMP103, NEN, Boston, Mass.). 1 μL of test compound stock in 100% DMSO was added to the wells resulting in a final concentration of 1% DMSO in the mixture with a 100 μL final reaction volume. Soluble rat VEGF-R2 kinase^3 was diluted in 50 mM Tris-HCl pH=8.0, 0.1% BSA at a concentration of 5 ng per microliter and 30 μL (150 ng enzyme per test well) was added to each well to initiate the reaction. The reaction was incubated for one hour at 30° C. At the end of the 1-hour incubation, the reaction was terminated by aspirating the reaction mixture from the plate and washing the wells twice with PBS containing 100 mM EDTA. The PLC1 biotinylated peptide substrate became immobilized on the Flashplate™ and the incoporation of ^33P-γ-ATP was measured by reading the plate on a scintillation counter. Inhibition of the enzymatic activity of the VEGF-R was measured by observing a reduced amount of ^33P-γ-ATP incorporated into the immobilized peptide. ^3VEGF-R2 kinase (Vascular Endothelial Growth Factor Receptor-2): a fusion protein containing a polyhistidine tag at the N-terminus followed by amino acids 786–1343 of the rat VEGF-R2 kinase domain GenBank Accession #U93306); Peptide Substrate (Biotin)KHKKLAEGSAYEEV-Amide
(§2) IC50 values listed as >10 or >100 indicate no observed 50% inhibition at the highest dose tested, nor was an inhibition maximum observed.

CDK1:Cyclin-B = target: T2, CDK1:Cyclin-B (Homo sapiens, UniProt P06493); experiment: CDK1 Screening Assay; conditions: 10 μM ATP, histone-H1 peptide substrate, 1 hour at 30° C.
T2 construct: purchased New England Biolabs, Beverly, Mass; (CDK1); BIOMOL, Plymouth Meeting, Pa; (Cyclin-B) #6020 (CDK1); #SE-195 (Cyclin-B); host or cells: insect cells
Experimental: (§3) A kinase reaction mixture was prepared containing 50 mM Tris-HCl pH=8, 10 mM MgCl2, 0.1 mM Na3PO4, 1 mM DTT, 10 μM ATP, 0.025 μM biotinylated histone-H1 peptide substrate and 0.2 μCuries per well^33P-γ-ATP [2000–3000 Ci/mmol]. 70 μL of the kinase reaction mixture was dispensed into the well of a streptavidin coated FlashPlate™ (Cat. #SMP103, NEN, Boston, Mass.). Then 1 μL of test compound stock in 100% DMSO was added to the wells resulting in a final concentration of 1% DMSO in the reaction with a 100 μL final reaction volume. CDK1:Cyclin-B protein^1 was diluted in 50 mM Tris-HCl pH=8.0, 0.1% BSA at a concentration of 1 ng per microliter. 30 μL (30 ng enzyme per test well) was added to each well to initiate the reaction, The reaction was incubated for one hour at 30° C. At the end of the 1-hour incubation, the reaction was terminated by aspirating the reaction mixture from the plate and washing the wells twice with PBS containing 100 mM EDTA. The histone-H1 biotinylated peptide substrate became immobilized on the Flashplate™ and the incorporation of ^33P-γ-ATP was measured by reading the plate on a scintillation counter. Inhibition of the enzymatic activity of CDK1 was measured by observing a reduced amount of ^33P-γ-ATP incorporated into the immobilized peptide. ^1CDK1 (cyclin dependent kinase 1) was isolated from insect cells expressing both the human CDK1 catalytic subunit and its positive regulatory subunit Cyclin B (CDK1: New England Biolabs, Beverly, Mass., Cat. #6020; Cyclin-B: BIOMOL, Plymouth Meeting, Pa., Cat. #SE-195); Peptide Substrate (Biotin)KTPKKAKKPKTPKKAKKL-Amide.
as §2

HER2 kinase = target: T3, HER2 kinase (Homo sapiens, UniProt P04626); experiment: HER-2 Kinase Screening Assay; conditions: HER2 cytoplasmic domain construct, 10 μM ATP
T3 construct: polyhistidine (N); 24 additional non-native amino acids (between the His tag and HER2) (N)
Experimental: as §1
Using the procedure and materials of Example 3, replacing VEGF-R2 kinase with HER2^4, the IC50 data for HER2 kinase is shown in Table 4. ^4HER2 (Human Epidermal Growth Factor Receptor-2): a construct containing a polyhistidine tag at the N-terminus followed by 24 additional non-native amino acids beginning at amino acid 676 (Accession number M11730) followed by the remainder of the HER2 cytoplasmic domain; Peptide Substrate (Biotin)KHKKLAEGSAYEEV-Amide.
IC50 values listed as >100 indicate no observed 50% inhibition at the highest dose tested, nor was an inhibition maximum observed.

CDK2:Cyclin-E = target: T4, CDK2:Cyclin-E (Homo sapiens, UniProt P24941); experiment: CDK2 Screening Assay; conditions: 10 μM ATP, histone-H1 peptide substrate
T4 construct: purchased Upstate Biotechnology, Lake Placid, N.Y
Experimental: as §3
Using the procedure and materials of Example 1, replacing CDK1:Cyclin-B protein with CDK2:Cyclin-E protein^2, the IC50 data for CDK2 is shown in Table 2. ^2CDK2 (cyclin dependent kinase 2) in complex with cyclin E is commercially available (Upstate Biotechnology, Lake Placid, N.Y.); Peptide Substrate (Biotin)KTPKKAKKPKTPKKAKKL-Amide
IC50 values listed as ˜100 indicate no observed 50% inhibition at the highest dose tested, nor was an inhibition maximum observed.

T2 sequence (P06493 whole entry): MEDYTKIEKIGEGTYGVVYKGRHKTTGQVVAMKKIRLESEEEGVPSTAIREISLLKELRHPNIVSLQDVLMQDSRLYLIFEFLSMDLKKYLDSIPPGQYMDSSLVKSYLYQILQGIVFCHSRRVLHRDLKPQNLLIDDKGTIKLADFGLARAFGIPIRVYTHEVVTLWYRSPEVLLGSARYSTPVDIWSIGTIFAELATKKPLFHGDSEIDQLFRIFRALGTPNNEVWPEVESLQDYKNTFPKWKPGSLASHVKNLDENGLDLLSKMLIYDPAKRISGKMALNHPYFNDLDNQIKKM
T2 sequence (P14635 whole entry partner): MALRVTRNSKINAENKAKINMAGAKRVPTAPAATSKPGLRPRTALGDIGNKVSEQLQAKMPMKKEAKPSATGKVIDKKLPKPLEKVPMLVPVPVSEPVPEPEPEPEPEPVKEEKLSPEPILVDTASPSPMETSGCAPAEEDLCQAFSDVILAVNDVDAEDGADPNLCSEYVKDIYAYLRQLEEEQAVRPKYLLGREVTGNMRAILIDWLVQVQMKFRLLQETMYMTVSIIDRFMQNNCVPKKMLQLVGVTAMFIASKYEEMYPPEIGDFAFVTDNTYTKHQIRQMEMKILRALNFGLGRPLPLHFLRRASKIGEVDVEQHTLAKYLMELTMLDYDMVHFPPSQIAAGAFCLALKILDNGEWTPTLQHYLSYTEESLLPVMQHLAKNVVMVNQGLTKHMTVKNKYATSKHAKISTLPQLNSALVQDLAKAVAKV
T1 sequence (O08775 786-1343): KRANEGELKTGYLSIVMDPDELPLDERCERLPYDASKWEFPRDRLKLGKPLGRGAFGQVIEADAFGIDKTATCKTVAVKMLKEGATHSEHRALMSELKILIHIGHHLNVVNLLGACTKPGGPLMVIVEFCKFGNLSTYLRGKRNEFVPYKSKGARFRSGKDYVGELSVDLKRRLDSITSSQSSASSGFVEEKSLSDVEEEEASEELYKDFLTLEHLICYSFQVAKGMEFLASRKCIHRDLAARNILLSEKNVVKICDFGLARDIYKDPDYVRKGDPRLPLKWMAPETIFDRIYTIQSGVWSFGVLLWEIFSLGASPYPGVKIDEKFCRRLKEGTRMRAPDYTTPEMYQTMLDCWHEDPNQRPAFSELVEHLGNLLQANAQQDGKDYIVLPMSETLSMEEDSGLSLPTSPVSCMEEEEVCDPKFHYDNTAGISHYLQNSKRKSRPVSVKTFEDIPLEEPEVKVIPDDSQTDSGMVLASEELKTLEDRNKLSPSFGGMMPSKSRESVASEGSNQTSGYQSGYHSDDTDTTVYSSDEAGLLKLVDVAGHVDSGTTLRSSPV
T3 sequence (P04626 676-1255 limits assumed): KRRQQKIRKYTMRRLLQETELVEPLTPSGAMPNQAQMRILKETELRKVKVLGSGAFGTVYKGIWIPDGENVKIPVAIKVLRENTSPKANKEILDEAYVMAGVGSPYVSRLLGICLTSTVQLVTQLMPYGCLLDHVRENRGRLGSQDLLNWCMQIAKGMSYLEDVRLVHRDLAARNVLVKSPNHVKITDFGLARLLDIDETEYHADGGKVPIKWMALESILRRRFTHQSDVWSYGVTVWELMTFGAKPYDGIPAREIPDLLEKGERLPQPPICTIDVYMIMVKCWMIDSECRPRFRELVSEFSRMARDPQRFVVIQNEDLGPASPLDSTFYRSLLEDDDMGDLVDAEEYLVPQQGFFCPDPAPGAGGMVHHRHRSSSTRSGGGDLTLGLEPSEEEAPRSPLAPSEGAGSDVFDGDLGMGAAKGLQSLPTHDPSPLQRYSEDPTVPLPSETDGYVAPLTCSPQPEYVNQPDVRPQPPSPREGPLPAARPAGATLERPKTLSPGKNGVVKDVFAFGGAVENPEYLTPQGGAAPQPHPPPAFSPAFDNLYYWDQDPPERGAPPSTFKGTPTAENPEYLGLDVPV

Compound | IC50 (VEGF-R2 kinase) | IC50 (CDK1:Cyclin-B) | IC50 (HER2 kinase) | IC50 (CDK2:Cyclin-E)
Nc1nc(Nc2ccc(NS(=O)(=O)c3ccccc3)cc2)ccc1C(=O)c1c(F)cccc1F [Cpd 19, N-[4-[[6-amino-5-(2,6-difluorobenzoyl)-2-pyridinyl]amino]phenyl]benzenesulfonamide] | > 10 µM | – | – | –
Nc1nc(Nc2ccc(C(=O)O)cc2)ccc1C(=O)c1c(F)cccc1F [Cpd 16, 4-[[6-amino-5-(2,6-difluorobenzoyl)-2-pyridinyl]amino]benzoic acid] | > 10 µM | – | – | –
Nc1nc(Nc2cccc(Cl)c2)ccc1C(=O)c1c(F)cccc1F [Cpd 11, [2-amino-6-[(3-chlorophenyl)amino]-3-pyridinyl](2,6-difluorophenyl)methanone] | > 100 µM | 6.16 µM | – | –
CC(=O)Nc1ccccc1Nc1ccc(C(=O)c2c(F)cccc2F)c(N)n1 [Cpd 21, N-[2-[[6-amino-5-(2,6-difluorobenzoyl)-2-pyridinyl]amino]phenyl]acetamide] | > 100 µM | > 100 µM | – | –
CCCCOc1cc(Nc2ccc(S(=O)(=O)N(C)C)cc2)nc(N)c1C(=O)c1c(F)cccc1F [Cpd 35, 4-[6-Amino-4-butoxy-5-(2,6-difluoro-benzoyl)-pyridin-2-ylamino]-N,N-dimethyl-benzenesulfonamide] | > 100 µM | ~1 µM | > 100 µM | 0.62 µM
Nc1ccc(C(=O)c2cccs2)c(N)n1 [Cpd 5, (2,6-diamino-3-pyridinyl)-2-thienylmethanone] | > 100 µM | > 100 µM | – | –
Nc1nc(Nc2ccc(S(=O)(=O)N(Cc3ccccc3)Cc3ccccc3)cc2)ccc1C(=O)c1c(F)cccc1F [Cpd 2b, 4-[[6-amino-5-(2,6-difluorobenzoyl)-2-pyridinyl]amino]-N,N-bis(phenylmethyl)benzenesulfonamide] | > 10 µM | > 10 µM | – | –
CN(C)S(=O)(=O)c1ccc(Nc2ccc(C(=O)c3ccco3)c(N)n2)cc1 [Cpd 27, 4-[[6-amino-5-(2-furanylcarbonyl)-2-pyridinyl]amino]-N,N-dimethyl benzenesulfonamide] | > 100 µM | – | – | –
Nc1nc(Nc2ccccn2)ccc1C(=O)c1c(F)cccc1F [Cpd 14, [2-amino-6-(2-pyridinylamino)-3-pyridinyl](2,6-difluorophenyl)methanone] | > 100 µM | – | – | –
Nc1ccc(C(=O)c2ccco2)c(N)n1 [Cpd 4, (2,6-diamino-3-pyridinyl)-2-furylmethanone] | > 100 µM | > 100 µM | – | –
4-[[6-amino-5-(2,6-difluorobenzoyl)-2-pyridinyl]amino]benzonitrile [Cpd 15] | > 10 µM | 0.95 µM | – | –
Nc1ccc(Nc2ccc(C(=O)c3c(F)cccc3F)c(N)n2)cc1 [Cpd 17, [2-amino-6-[(4-aminophenyl)amino]-3-pyridinyl](2,6-difluorophenyl)methanone] | > 10 µM | – | – | –
CN(C)S(=O)(=O)c1ccc(Nc2ccc(C(=O)c3c(F)cccc3F)c(N)n2)cc1 [Cpd 7, 4-[[6-amino-5-(2,6-difluorobenzoyl)-2-pyridinyl]amino]-N,N-dimethylbenzenesulfonamide] | > 10 µM | 0.26 µM | – | –
CCN(CC)S(=O)(=O)c1ccc(Nc2ccc(C(=O)c3ccccc3)c(N)n2)cc1 [Cpd 26, 4-[(6-amino-5-benzoyl-2-pyridinyl)amino]-N,N-diethylbenzenesulfonamide] | > 100 µM | > 100 µM | – | –
Nc1nc(Nc2ccccc2NS(=O)(=O)c2ccccc2)ccc1C(=O)c1c(F)cccc1F [Cpd 23, N-[2-[[6-amino-5-(2,6-difluorobenzoyl)-2-pyridinyl]amino]phenyl]benzenesulfonamide] | > 100 µM | > 100 µM | – | –
Nc1nc(Nc2ccccc2NC(=O)c2ccccc2)ccc1C(=O)c1c(F)cccc1F [Cpd 22, N-[2-[[6-amino-5-(2,6-difluorobenzoyl)-2-pyridinyl]amino]phenyl]benzamide] | > 100 µM | > 100 µM | – | –
Nc1nc(Nc2ccc(S(N)(=O)=O)cc2)ccc1C(=O)c1c(F)cccc1F [Cpd 6, 4-[[6-amino-5-(2,6-difluorobenzoyl)-2-pyridinyl]amino]benzenesulfonamide] | > 10 µM | – | – | –
CN(C)S(=O)(=O)c1ccc(Nc2ccc(C(=O)c3cccs3)c(N)n2)cc1 [Cpd 29, 4-[[6-amino-5-(2-thienylcarbonyl)-2-pyridinyl]amino]-N,N-dimethylbenzene sulfonamide] | > 100 µM | – | – | –
Nc1nc(Nc2ccccc2[N+](=O)[O-])ccc1C(=O)c1c(F)cccc1F [Cpd 12, [2-amino-6-[(2-nitrophenyl)amino]-3-pyridinyl](2,6-difluorophenyl)methanone] | > 10 µM | > 10 µM | – | –
CNc1ccc(Nc2ccc(C(=O)c3c(F)cccc3F)c(N)n2)cc1 [Cpd 18, [2-amino-6-[[4-(methylamino)phenyl]amino]-3-pyridinyl](2,6-difluorophenyl)methanone] | > 10 µM | – | – | –
CCN(CC)S(=O)(=O)c1ccc(Nc2ccc(C(=O)c3ccco3)c(N)n2)cc1 [Cpd 28, 4-[[6-amino-5-(2-furanylcarbonyl)-2-pyridinyl]amino]-N,N-diethylbenzenesulfonamide] | > 100 µM | > 100 µM | – | –
Nc1ccc(C(=O)c2ccccc2)c(N)n1 [Cpd 3, (2,6-diamino-3-pyridinyl)phenylmethanone] | > 10 µM | – | – | –
Nc1ccc(C(=O)c2ccccc2F)c(N)n1 [Cpd 2, (2,6-diamino-3-pyridinyl)(2-fluorophenyl)methanone] | > 10 µM | – | – | –
CN(C)S(=O)(=O)c1ccc(Nc2ccc(C(=O)c3ccccc3)c(N)n2)cc1 [Cpd 25, 4-[(6-amino-5-benzoyl-2-pyridinyl)amino]-N,N-dimethylbenzenesulfonamide] | > 100 µM | – | – | –
Nc1nc(Nc2cccc([N+](=O)[O-])c2)ccc1C(=O)c1c(F)cccc1F [Cpd 10, [2-amino-6-[(3-nitrophenyl)amino]-3-pyridinyl](2,6-difluorophenyl)methanone] | > 100 µM | – | – | –
Nc1nc(Nc2ccccc2)ccc1C(=O)c1c(F)cccc1F [Cpd 13, [2-amino-6-(phenylamino)-3-pyridinyl](2,6-difluorophenyl)methanone] | > 100 µM | 21.7 µM | – | –
CN(C)S(=O)(=O)c1ccc(Nc2ccc(C(=O)c3ccccc3F)c(N)n2)cc1 [Cpd 24, 4-[[6-amino-5-(2-fluorobenzoyl)-2-pyridinyl]amino]-N,N-dimethyl benzenesulfonamide] | > 100 µM | – | – | –
Nc1ccccc1Nc1ccc(C(=O)c2c(F)cccc2F)c(N)n1 [Cpd 20, [2-amino-6-[(2-aminophenyl)amino]-3-pyridinyl](2,6-difluorophenyl)methanone] | > 100 µM | – | – | –
